Source: paper PMC11207571, “Applicability of MDR1 Overexpressing Abcb1KO-MDCKII Cell Lines for Investigating In Vitro Species Differences and Brain Penetration Prediction” (Pharmaceutics, 2024)

What was measured:
[1] = Bidirectional transport assay, efflux ratio in Abcb1KO-MDCKII-Mock control cells; settings: dog, MDCK, pH 7.4
Description: (§1) Eluent A consisted of 0.1% formic acid in water, eluent B consisted of 0.1% formic acid in acetonitrile. Then, 10 µL samples were injected into the HPLC-MS/MS system. Mass spectrometric detection was performed in SRM mode, and ion transitions for each analyte were optimized during method development. Samples were analyzed in pools, with each pool containing three to four analytes.

human MDR1 = human MDR1 (Homo sapiens, UniProt P08183); assay: Bidirectional transport assay, efflux ratio in Abcb1KO-MDCKII hMDR1 cells; settings: human, MDCK-MDR1, pH 7.4
Chain of human MDR1 (P08183 whole entry): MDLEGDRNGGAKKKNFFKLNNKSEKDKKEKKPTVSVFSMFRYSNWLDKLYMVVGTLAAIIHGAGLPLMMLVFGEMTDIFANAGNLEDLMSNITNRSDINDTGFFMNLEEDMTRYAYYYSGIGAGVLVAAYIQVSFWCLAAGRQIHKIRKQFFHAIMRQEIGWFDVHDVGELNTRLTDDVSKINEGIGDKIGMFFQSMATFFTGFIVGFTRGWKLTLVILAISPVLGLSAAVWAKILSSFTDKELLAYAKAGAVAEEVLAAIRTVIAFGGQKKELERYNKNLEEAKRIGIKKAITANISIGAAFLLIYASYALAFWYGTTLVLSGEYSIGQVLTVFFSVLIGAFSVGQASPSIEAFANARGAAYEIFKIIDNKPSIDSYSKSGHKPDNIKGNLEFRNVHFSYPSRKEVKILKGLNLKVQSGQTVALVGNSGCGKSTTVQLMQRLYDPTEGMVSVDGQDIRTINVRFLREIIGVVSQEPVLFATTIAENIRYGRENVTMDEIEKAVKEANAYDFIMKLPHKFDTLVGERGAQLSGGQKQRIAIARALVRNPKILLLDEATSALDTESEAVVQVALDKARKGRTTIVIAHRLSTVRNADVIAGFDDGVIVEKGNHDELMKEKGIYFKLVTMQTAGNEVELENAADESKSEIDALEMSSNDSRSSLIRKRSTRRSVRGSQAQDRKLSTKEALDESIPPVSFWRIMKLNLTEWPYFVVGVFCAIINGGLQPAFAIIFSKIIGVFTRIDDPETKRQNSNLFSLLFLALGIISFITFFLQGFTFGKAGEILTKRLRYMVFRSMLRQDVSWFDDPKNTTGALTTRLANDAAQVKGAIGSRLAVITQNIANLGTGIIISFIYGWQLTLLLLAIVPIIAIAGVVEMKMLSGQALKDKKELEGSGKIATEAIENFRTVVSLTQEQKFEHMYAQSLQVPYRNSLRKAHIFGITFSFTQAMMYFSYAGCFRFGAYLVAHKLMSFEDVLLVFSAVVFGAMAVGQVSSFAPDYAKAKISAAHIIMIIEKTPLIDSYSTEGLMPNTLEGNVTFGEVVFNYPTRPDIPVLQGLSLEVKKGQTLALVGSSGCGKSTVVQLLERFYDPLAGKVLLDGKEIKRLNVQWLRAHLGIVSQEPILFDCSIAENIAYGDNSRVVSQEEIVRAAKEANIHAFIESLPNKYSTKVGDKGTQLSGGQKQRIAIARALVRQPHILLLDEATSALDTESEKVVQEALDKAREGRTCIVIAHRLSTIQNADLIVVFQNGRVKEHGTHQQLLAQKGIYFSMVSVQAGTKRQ
Description: as §1

rat Mdr1a [2] = target: T1, rat Mdr1a (Rattus norvegicus, UniProt Q6PSM0); assay: Bidirectional transport assay, efflux ratio in Abcb1KO-MDCKII rMDR1 cells; settings: rat, pH 7.4
T1 sequence (Q6PSM0 1-1272): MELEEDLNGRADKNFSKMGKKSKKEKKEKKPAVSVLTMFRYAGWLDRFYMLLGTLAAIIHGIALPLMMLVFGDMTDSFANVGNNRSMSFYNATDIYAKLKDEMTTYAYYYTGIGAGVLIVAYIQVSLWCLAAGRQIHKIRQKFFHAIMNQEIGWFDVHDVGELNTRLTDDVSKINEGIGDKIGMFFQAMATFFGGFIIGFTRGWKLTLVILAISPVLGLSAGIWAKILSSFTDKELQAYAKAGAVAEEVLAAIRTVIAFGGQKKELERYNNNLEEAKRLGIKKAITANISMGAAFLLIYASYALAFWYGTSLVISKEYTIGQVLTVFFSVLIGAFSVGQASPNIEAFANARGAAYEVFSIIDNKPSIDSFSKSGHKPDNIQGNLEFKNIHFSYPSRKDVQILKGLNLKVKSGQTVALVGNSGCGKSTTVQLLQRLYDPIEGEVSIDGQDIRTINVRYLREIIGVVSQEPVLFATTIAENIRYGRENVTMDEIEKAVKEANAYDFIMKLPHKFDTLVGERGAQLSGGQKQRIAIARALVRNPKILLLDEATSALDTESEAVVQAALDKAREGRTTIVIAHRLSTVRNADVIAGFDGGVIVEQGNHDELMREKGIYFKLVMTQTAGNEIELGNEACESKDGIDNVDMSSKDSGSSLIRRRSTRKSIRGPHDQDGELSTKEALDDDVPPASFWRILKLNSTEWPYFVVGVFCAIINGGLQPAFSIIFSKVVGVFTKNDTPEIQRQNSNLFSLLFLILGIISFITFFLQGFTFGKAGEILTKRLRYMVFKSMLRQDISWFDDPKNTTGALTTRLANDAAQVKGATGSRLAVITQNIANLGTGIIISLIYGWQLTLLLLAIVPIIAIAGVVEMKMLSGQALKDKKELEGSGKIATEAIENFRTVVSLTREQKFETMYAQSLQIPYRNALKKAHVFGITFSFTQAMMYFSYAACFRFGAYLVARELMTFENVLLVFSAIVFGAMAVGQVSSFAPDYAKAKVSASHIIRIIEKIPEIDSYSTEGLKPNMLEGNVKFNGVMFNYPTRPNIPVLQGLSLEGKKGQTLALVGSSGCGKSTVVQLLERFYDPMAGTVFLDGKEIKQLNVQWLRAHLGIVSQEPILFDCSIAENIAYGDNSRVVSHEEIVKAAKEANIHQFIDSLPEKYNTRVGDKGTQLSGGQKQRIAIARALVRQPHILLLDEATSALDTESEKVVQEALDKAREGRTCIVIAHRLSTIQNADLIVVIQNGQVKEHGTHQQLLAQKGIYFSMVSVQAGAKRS
Description: as §1

mouse Mdr1a [3] = target: T2, mouse Mdr1a (Mus musculus, UniProt P21447); assay: Bidirectional transport assay, efflux ratio in Abcb1KO-MDCKII mMDR1 cells; settings: mouse, pH 7.4
T2 sequence (P21447 whole entry): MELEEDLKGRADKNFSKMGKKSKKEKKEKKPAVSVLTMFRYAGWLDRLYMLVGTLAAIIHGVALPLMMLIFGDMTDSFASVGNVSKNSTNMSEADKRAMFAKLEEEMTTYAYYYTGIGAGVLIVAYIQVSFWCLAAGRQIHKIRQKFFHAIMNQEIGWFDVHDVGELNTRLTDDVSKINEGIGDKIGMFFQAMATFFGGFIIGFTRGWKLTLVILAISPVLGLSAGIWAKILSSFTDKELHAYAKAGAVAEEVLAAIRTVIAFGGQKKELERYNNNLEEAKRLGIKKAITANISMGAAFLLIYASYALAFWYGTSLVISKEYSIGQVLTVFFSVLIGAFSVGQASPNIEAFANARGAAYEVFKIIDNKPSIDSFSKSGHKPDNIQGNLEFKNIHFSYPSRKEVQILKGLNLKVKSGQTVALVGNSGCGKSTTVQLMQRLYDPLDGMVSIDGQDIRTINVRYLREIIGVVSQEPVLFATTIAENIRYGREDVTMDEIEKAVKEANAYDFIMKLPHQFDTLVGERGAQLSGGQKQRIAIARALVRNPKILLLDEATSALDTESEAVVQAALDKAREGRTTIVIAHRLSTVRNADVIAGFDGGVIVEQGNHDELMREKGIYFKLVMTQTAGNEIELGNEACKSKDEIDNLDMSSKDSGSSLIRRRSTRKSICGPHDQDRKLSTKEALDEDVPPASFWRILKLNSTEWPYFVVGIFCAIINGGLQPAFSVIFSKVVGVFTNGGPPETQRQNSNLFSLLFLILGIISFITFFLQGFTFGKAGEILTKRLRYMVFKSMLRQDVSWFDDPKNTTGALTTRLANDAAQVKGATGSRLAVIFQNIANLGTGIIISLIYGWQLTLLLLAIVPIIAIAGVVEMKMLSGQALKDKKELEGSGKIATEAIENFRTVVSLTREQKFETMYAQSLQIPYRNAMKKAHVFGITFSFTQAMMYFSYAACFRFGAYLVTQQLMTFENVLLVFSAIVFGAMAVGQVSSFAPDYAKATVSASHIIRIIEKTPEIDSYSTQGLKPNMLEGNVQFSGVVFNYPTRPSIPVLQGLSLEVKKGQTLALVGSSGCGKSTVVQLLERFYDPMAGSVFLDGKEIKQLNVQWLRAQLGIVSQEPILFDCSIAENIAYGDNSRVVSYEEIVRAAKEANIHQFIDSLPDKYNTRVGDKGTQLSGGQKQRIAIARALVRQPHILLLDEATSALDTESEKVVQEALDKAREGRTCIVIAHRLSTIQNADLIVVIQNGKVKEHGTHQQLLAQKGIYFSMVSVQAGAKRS
Description: as §1

cynomolgus monkey Mdr1 = cynomolgus monkey Mdr1 (Macaca fascicularis, UniProt Q8HZQ6); assay: Bidirectional transport assay, efflux ratio in Abcb1KO-MDCKII cyMDR1 cells; settings: cynomolgus monkey, pH 7.4
Chain of cynomolgus monkey Mdr1 (Q8HZQ6 1-1283): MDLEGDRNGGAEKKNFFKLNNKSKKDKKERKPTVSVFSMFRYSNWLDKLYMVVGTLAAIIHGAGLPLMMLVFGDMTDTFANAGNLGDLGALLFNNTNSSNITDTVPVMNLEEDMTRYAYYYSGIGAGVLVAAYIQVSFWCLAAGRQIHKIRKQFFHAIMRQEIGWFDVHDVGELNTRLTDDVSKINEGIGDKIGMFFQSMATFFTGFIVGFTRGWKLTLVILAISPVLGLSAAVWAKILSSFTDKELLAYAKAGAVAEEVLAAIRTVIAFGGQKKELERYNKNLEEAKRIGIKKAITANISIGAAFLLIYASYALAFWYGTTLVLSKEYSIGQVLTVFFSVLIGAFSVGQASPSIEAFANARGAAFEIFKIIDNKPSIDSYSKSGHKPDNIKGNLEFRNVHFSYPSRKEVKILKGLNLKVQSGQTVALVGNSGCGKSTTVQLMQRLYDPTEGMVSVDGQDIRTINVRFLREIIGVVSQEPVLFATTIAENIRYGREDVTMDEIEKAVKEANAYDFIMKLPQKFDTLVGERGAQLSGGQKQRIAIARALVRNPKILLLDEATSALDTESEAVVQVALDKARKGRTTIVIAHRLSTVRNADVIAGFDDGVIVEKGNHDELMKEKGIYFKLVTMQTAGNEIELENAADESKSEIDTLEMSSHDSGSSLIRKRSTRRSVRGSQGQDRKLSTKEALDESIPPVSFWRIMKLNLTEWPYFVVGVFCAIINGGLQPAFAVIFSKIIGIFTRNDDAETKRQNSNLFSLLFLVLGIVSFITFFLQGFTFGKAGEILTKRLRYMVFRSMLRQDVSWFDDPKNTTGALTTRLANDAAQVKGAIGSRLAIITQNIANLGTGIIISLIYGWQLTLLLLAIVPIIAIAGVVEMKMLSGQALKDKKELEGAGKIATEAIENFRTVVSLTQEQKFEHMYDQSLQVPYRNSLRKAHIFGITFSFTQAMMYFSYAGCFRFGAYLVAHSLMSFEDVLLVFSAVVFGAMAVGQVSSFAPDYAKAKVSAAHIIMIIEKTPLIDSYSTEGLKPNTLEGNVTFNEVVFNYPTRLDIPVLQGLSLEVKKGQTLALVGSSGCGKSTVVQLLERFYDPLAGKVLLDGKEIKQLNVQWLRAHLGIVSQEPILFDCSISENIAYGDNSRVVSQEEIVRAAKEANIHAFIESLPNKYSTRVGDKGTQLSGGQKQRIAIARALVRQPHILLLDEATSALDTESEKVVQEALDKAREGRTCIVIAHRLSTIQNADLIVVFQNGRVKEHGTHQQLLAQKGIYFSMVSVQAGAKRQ
Description: as §1

human BCRP = target: T3, human BCRP (Homo sapiens, UniProt Q9UNQ0); assay: Bidirectional transport assay, efflux ratio in MDCKII-BCRP cells; settings: for efflux ratio at 120 min, 1 µM: human, pH 7.4
T3 sequence (Q9UNQ0 1-655): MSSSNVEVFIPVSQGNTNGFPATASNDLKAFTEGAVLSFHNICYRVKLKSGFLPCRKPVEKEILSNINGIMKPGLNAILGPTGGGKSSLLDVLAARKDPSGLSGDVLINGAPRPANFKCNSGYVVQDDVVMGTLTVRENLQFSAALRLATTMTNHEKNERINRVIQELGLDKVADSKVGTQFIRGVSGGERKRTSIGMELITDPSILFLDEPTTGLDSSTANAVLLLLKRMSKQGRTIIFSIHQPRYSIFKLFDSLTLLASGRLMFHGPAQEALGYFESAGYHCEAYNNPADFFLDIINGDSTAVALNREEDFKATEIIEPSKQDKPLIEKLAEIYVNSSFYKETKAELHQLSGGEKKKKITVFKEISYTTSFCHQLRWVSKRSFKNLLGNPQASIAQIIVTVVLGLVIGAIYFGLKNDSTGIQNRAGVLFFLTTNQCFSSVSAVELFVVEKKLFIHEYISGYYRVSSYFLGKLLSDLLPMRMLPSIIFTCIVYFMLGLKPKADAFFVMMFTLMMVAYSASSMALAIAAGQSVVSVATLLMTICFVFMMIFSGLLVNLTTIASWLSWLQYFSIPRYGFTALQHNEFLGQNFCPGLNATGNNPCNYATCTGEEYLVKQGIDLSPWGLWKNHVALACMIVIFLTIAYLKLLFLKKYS
Description: as §1

rat Mdr1a [4] = target: T1, rat Mdr1a; assay: Inhibition of 3H-digoxin or 3H-quinidine bidirectional transport in rMDR1 cells; assay type: cell-based; design: rat Mdr1a (NM_133401.1); expressed in transfected cells; host or cells: Abcb1KO-MDCKII (canine kidney, endogenous Abcb1 knocked out), transduced, single-cell clone; settings: Inhibition of digoxin transport IC50±SD, rMDR1, probe 3H-digoxin 1 µM, 120 min; IC50 from ER
mouse Mdr1a [5] = target: T2, mouse Mdr1a; assay: Inhibition of 3H-digoxin or 3H-quinidine bidirectional transport in mMDR1 cells; assay type: cell-based; design: mouse Mdr1a (NM_011076.3); expressed in transfected cells; host or cells: Abcb1KO-MDCKII (canine kidney, endogenous Abcb1 knocked out), transduced, single-cell clone; settings: Inhibition of digoxin transport IC50±SD, mMDR1, probe 3H-digoxin 1 µM, 120 min; IC50 from ER

SMILES | efflux ratio at 120 min, 1 µM [1] | efflux ratio at 120 min, 1 µM (human MDR1) | efflux ratio at 120 min, 1 µM (rat Mdr1a [2]) | efflux ratio at 120 min, 1 µM (mouse Mdr1a [3]) | efflux ratio at 120 min, 1 µM (cynomolgus monkey Mdr1) | efflux ratio at 120 min, 1 µM (human BCRP) | ER in MDCKII BCRP (human BCRP; 1 µM, 120 min, mean ± SD) | IC50 (rat Mdr1a [4]) | IC50 (mouse Mdr1a [5])
Cc1ccc(NC(=O)c2ccc(CN3CCN(C)CC3)cc2)cc1Nc1nccc(-c2cccnc2)n1 [Imatinib] | 0.99 ± 0.11 | 60.2 ± 4.74 | 29.1 ± 1.26 | 23.1 ± 1.52 | 10.5 ± 0.6 | 49.2 ± 0.99 | – | – | –
CN(C)CCCN1c2ccccc2CCc2ccccc21 [Imipramine] | 0.62 ± 0.04 | 1.08 ± 0.05 | 0.83 ± 0.08 | 0.9 ± 0.05 | 0.82 ± 0.09 | 0.6 ± 0.06 | – | – | –
CC(C)(C)NC(=O)[C@@H]1CN(Cc2cccnc2)CCN1C[C@@H](O)C[C@@H](Cc1ccccc1)C(=O)N[C@H]1c2ccccc2C[C@H]1O [Indinavir] | 0.93 ± 0.31 | 33.2 ± 1.69 | 10.9 ± 1.21 | 11.2 ± 2.53 | 34.8 ± 10.4 | 29.7 ± 3.69 | – | – | –
CCN(CC)CCNC(=O)c1cc(Cl)c(N)cc1OC [Metoclopramide] | 0.85 ± 0.07 | 5.55 ± 0.43 | 3.02 ± 0.28 | 2.55 ± 0.21 | 1.44 ± 0.14 | 2.42 ± 0.33 | – | – | –
COCCc1ccc(OCC(O)CNC(C)C)cc1 (centres unmarked) [Metoprolol] | 0.74 ± 0.05 | 1.53 ± 0.15 | 0.97 ± 0.11 | 0.92 ± 0.08 | 0.74 ± 0.05 | 0.71 ± 0.11 | – | – | –
Cc1cccc(C)c1OCC(C)N (centres unmarked) [Mexiletine] | 0.36 ± 0.05 | 0.44 ± 0.03 | 0.42 ± 0.08 | 0.64 ± 0.16 | 0.51 ± 0.15 | 0.71 ± 0.05 | – | – | –
Cc1ncc2n1-c1ccc(Cl)cc1C(c1ccccc1F)=NC2 [Midazolam] | 0.43 ± 0.04 | 0.53 ± 0.03 | 0.28 ± 0.06 | 0.4 ± 0.06 | 0.43 ± 0.05 | 0.57 ± 0.06 | – | – | –
O=C1c2c(O)ccc(O)c2C(=O)c2c(NCCNCCO)ccc(NCCNCCO)c21 [Mitoxantrone] | 1.15 ± 0.14 | 5.66 ± 0.54 | 17.6 ± 1.56 | 28.6 ± 4.05 | 40.3 ± 2.47 | 55.6 ± 10.8 | – | – | –
CC(=O)O[C@H]1C(=O)[C@@]2(C)[C@H]([C@H](OC(=O)c3ccccc3)[C@]3(O)C[C@H](OC(=O)[C@H](O)[C@@H](NC(=O)c4ccccc4)c4ccccc4)C(C)=C1C3(C)C)[C@]1(OC(C)=O)CO[C@@H]1C[C@@H]2O [Paclitaxel] | 2.52 ± 0.51 | 40.2 ± 12.6 | 82.9 ± 41.1 | 57.7 ± 17 | 33.4 ± 5.69 | 63.8 ± 28.5 | – | – | –
Cc1nc2n(c(=O)c1CCN1CCC(c3noc4cc(F)ccc34)CC1)CCCC2O (centres unmarked) [Paliperidone] | 0.79 ± 0.1 | 19.8 ± 2.06 | 6.06 ± 1.45 | 8.26 ± 0.88 | 2.47 ± 0.41 | 5.82 ± 1.79 | – | – | –
CN(C)CCC(c1ccccc1)c1ccccn1 (centres unmarked) [Pheniramine] | 0.78 ± 0.04 | 1.45 ± 0.05 | 1.09 ± 0.03 | 1.1 ± 0.1 | 0.99 ± 0.02 | 1.02 ± 0.03 | – | – | –
COc1cc2nc(N3CCN(C(=O)c4ccco4)CC3)nc(N)c2cc1OC [Prazosin] | 0.72 ± 0.03 | 9.35 ± 0.45 | 6.5 ± 0.22 | 5.14 ± 0.39 | 2.42 ± 0.15 | – | 14.79 ± 1.68 | – | –
C[C@]12C=CC(=O)C=C1CC[C@@H]1[C@@H]2C(=O)C[C@@]2(C)[C@H]1CC[C@]2(O)C(=O)CO [Prednisone] | 0.82 ± 0.11 | 17.3 ± 2.38 | 9.6 ± 1.82 | 6.6 ± 0.57 | 4.41 ± 0.52 | 1.33 ± 0.1 | – | – | –
CC(C)NCC(O)COc1cccc2ccccc12 (centres unmarked) [Propranolol] | 0.54 ± 0.06 | 0.88 ± 0.08 | 0.73 ± 0.08 | 0.92 ± 0.1 | 0.66 ± 0.06 | 0.71 ± 0.15 | – | – | –
C=C[C@H]1C[N@@]2CC[C@H]1C[C@@H]2[C@@H](O)c1ccnc2ccc(OC)cc12 [Quinidine] | – | – | – | – | – | – | – | 2.93 ± 1.43 µM | 15 ± 4.06 µM
CNC(=C[N+](=O)[O-])NCCSCc1ccc(CN(C)C)o1 [Ranitidine] | 0.91 ± 0.06 | 2.89 ± 0.15 | 2.63 ± 0.19 | 2.09 ± 0.3 | 2.14 ± 0.25 | 10.3 ± 0.96 | – | – | –
CN[C@H]1CC[C@@H](c2ccc(Cl)c(Cl)c2)c2ccccc21 [Sertraline] | 3.57 ± 0.3 | 3.1 ± 0.34 | 2.74 ± 0.28 | 2.93 ± 0.43 | 5.65 ± 0.81 | 3.7 ± 0.67 | – | – | –
Nc1c2c(nc3ccccc13)CCCC2 [Tacrine] | 0.81 ± 0.02 | 0.93 ± 0.04 | 0.88 ± 0.02 | 0.99 ± 0.03 | 0.83 ± 0.02 | 1.19 ± 0.07 | – | – | –
CC/C(=C(\c1ccccc1)c1ccc(OCCN(C)C)cc1)c1ccccc1 [Tamoxifen] | 2.25 ± 1.24 | 1.65 ± 0.24 | 1.61 ± 0.18 | 2.26 ± 0.76 | 1.81 ± 0.51 | 0.81 ± 0.14 | – | – | –
CC(C)(C)c1ccc(C(O)CCCN2CCC(C(O)(c3ccccc3)c3ccccc3)CC2)cc1 (centres unmarked) [Terfenadine] | 0.88 ± 0.06 | 10.7 ± 0.78 | 1.29 ± 0.14 | 2.64 ± 0.33 | 0.92 ± 0.14 | 2.96 ± 0.31 | – | – | –
O=c1n(CCCN2CCN(c3cccc(Cl)c3)CC2)nc2ccccn12 [Trazodone] | 2.66 ± 0.59 | 1.71 ± 0.34 | 1.4 ± 0.16 | 0.98 ± 0.24 | 1.5 ± 0.1 | 0.86 ± 0.11 | – | – | –
CC[C@]1(O)C[C@@H]2CN(CCc3c([nH]c4ccccc34)[C@@](C(=O)OC)(c3cc4c(cc3OC)N(C)[C@H]3[C@@](O)(C(=O)OC)[C@H](OC(C)=O)[C@]5(CC)C=CCN6CC[C@]43[C@@H]65)C2)C1 [Vinblastine] | 1.32 ± 0.28 | 51.6 ± 5.3 | 61.2 ± 5.31 | 50.5 ± 6.89 | 61.4 ± 7.47 | 22.9 ± 4.47 | – | – | –
CN(C)CCc1c[nH]c2ccc(C[C@H]3COC(=O)N3)cc12 [Zolmitriptan] | 0.97 ± 0.09 | 4.3 ± 0.26 | 2.69 ± 0.16 | 1.99 ± 0.16 | 2.24 ± 0.22 | 3.94 ± 0.25 | – | – | –
